Experiments:
[1] = UV/Vis absorption spectra; type: physicochemical
Procedure: (§1) The UV-vis absorption spectra were taken on Cary 60 UV-vis spectrophotometer. Steady-state emission spectra at room temperature were recorded on an Edinburgh Instruments FLS980 fluorescence spectrometer. Quartz cuvettes (path length=1 cm) were used in all spectrophotometric and fluorometric measurements. NMR spectra were recorded on a Bruker AVANCE 400 (^1H NMR for 400 MHz and ^13C NMR for 100 MHz) Fourier transform NMR spectrometer with chemical shifts reported relative to tetramethylsilane, (CH3)4Si. High-resolution MS spectra were performed on an Orbitrap Fusion Tribrid mass spectrometer. Elemental analyses of the newly synthesized complexes were preformed on a Elementar Vario EL Cube elemental analyzer at Sun Yat-sen University. The nanosecond time-resolved transient-difference absorption spectra were detected by using Edinburgh LP920 instruments (Edinburgh Instruments, U.K.). All solutions for transient absorption studies were degassed on a high-vacuum line in a two-compartment cell consisting of a 10-ml Pyrex bulb and a 1-cm or 4-mm path length quartz cuvette and sealed from the atmosphere by a Bibby Rotaflo HP6 Teflon stopper. The solutions were rigorously degassed with at least four successive freeze-pump-thaw cycles. Emission lifetime measurements were performed using a conventional laser system. The excitation source used was a 355-nm output (third harmonic) of a Spectra-Physics Quanta-Ray Q-switched GCR-150-10 pulsed Nd-YAG laser. Luminescence decay signals were detected by a Hamamatsu R928 PMT and recorded on a Tektronix Model TDS-620A (500 MHz, 2 GS/s) digital oscilloscope and analyzed using a program for exponential fits. Absolute quantum yields were measured by HAMAMATSU-C11347.

[2] = Steady-state emission spectra and absolute luminescence quantum yield; type: physicochemical
Procedure: as §1

[3] = Singlet oxygen quantum yield; type: physicochemical
Source text: The long-lived triplet excited state of rhodamine is anticipated to interact with molecular oxygen (^3O2) to form singlet oxygen (^1O2), which is useful for PDT applications. The ability of M-Rho to produce ^1O2 has been evaluated spectroscopically by the observation of ^1O2 emission at about 1270 nm (inset of FIG. 2b). Remarkable ^1O2 emission is observed in Ir-Rho, Re-Rho and Pt-Rho but not for Rh-Rho and bpy-Rho. By monitoring the diminution of the characteristic absorption of the ^1O2 scavenger 1,3-diphenylisobenzofuran (DPBF) at 410 nm, ^1O2 generation is also confirmed and the corresponding quantum yields (ϕΔ) for the complexes are determined (Table 1). […] The rate and quantum yield of ^1O2 generation are found to vary with different metal systems.
Singlet oxygen quantum yield was determined by comparing the ^1O2 emission intensity of Rose Bengal and M-Rho.

[4] = Singlet oxygen emission at about 1270 nm; type: physicochemical; conditions: in CH3CN
Procedure: Singlet oxygen emission was detected by using FLS-980 spectrofluorometer. All of the compounds were dissolved in CH3CN. The absorbance at 532 nm was adjusted to be around 1.7 for all the compounds. Upon measurements, an 850 nm long-pass filter was inserted in between the sample and the detector to avoid many high-order diffraction from the visible emission.

MCF-7 cells = test: Intracellular ROS, DCFH-DA assay; type: cell-based, human; conditions: 5 μM, 11-W lamp for 30 min
Procedure: The MCF-7 cells were seeded in eight-well chambered coverglasses (lab-Tek, Nunc, USA) and six-well plate, incubated for 24 h in 5% CO2 at 37° C. Next, added to compounds (bpy-Rho and M-Rho) in medium make the final concentrations of 5 μM compounds. After irradiation treatment (11 W lamp 30 min), cells were promptly washed with PBS and incubated with 4 μg/ml 2′7′-dichloro-fluoreseindiacetate (DCFH-DA) for 30 min, and intracellular ROS generation was evaluated by flow cytometry and confocal microscopy.

4T1 = test: Selective uptake by flow cytometry; type: cell-based, mouse; conditions: 4T1, 5 μM, 2 h incubation
Procedure: (§2) Tumor cells (MCF-7/A 549/HepG2/4T1) and normal cells (MCF-10A/293T/L02/NIH-3T3) (1×10^4 cells) was cultured in six-well plate for 12 h. and then Cells were changed with a medium containing 5 μM complexes (rho-bpy, rho-bpy-Pt-ph, rho-bpy-Rh-ppy, rho-bpy-Re and rho-bpy-Ir-ppy). Cells were washed three times with PBS after 2 h of incubation, Then the cells were harvested, and the fluorescence intensity of complexes were recorded by flow cytometer.

A549 = test: Selective uptake by flow cytometry; type: cell-based, human; conditions: A549, 5 μM, 2 h incubation
Procedure: as §2

MCF-7 = test: Selective uptake by flow cytometry; type: cell-based, human; conditions: MCF-7, 5 μM, 2 h incubation
Procedure: as §2

MCF-7 tumor-bearing mice = test: In vivo NIRF imaging, biodistribution and tumor accumulation
Procedure: The procedures were approved by the Animal Care and Use Committee (Shenzhen Institutes of Advanced Technology, Chinese Academy of Sciences). Four-8-week-old female BALB/c mice or nude mice (Vital River Laboratory Animal Technology Co. Ltd., China) were subcutaneously injected with MCF-7 cells (1×10^6) in the flank region.
The Maestro GNIR Flex imaging system and analysis with software from CRi was used to image tumor-bearing animals over time following i.v. treatment with Ir-Rho (200 μM, 150 μl). At each time point, the mouse was imaged at 600 nm excitation and 650 nm emission. At 24 h post injection, tumors and major organs were excised for ex vivo NIRF imaging to determine the tissue distribution of Ir-Rho. All main organs were cut with similar thickness and imaged at 600 nm excitation and 650 nm emission. The average fluorescence intensity of organs was from a region of interest (ROI) placed over the area of the organs on the image.

[5] = Octanol-water partition coefficient
Source text: Octanol-water partition coefficients (log Po/w)^[27] of bpy-Rho and M-Rho have been measured in order to study their lipophilic/hydrophilic characters. The higher is the log Po/w value associated with the dye, the higher is its lipophilic character.

[6] = ex vivo NIRF, 24 h post-injection

CCN(CC)c1ccc2c(-c3ccnc(-c4cc(C)ccn4)c3)c3ccc(=[N+](CC)CC)cc-3oc2c1.F[P-](F)(F)(F)(F)F.F[P-](F)(F)(F)(F)F.c1ccc(-c2cccc[c]2[Ir+][c]2ccccc2-c2ccccn2)nc1 [Ir-Rho]
λabs ([1]; absorption maximum, in CH3CN): 575 nm | ε × 10^4 ([1]; molar extinction coefficient at the absorption maxima, values × 10^4): 8.75 M^−1 cm^−1 | λem ([2]; Conc. = 1.0 × 10^−6M in MeOH): 629 nm | Φlum ([2]; absolute luminescence quantum yield measured by HAMAMATSU-C11347): 0.014 | rate and quantum yield of 1O2 generation, ranking ([3]; among M-Rho): highest QY | ΦΔ (singlet oxygen quantum yield) ([3]; relative to rose bengal (ΦΔ = 0.76)): 0.62 | 1O2 emission at about 1270 nm [4]: Remarkable | intracellular ROS generation (MCF-7 cells): highest ROS generation ability | contrast index (CI) (4T1): higher than 2.5 | contrast index (CI) (A549): higher than 2.5 | contrast index (CI) (MCF-7): higher than 2.5 | liver uptake (MCF-7 tumor-bearing mice; [6]): relatively low liver uptake | tumor accumulation (MCF-7 tumor-bearing mice; [6]): good tumor accumulation | time of peak tumor uptake (MCF-7 tumor-bearing mice; i.v. injection via the tail vein, 200 μM, 150 μl): 24 h | log Po/w [5]: −0.39
